From patent US20140377219A1, “HIV INHIBITORS” (New york Blood Center, Inc., priority 2011, published 2014)
Where two headings read alike, the source gives them in different places.

What was measured:
[1] = tested on: TZM-bl cells; assay: Cytotoxicity in TZM-bl cells (XTT); type: cell-based
Outline: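 TZM-bl cells (10^5/ml) combined with equal volumes of compound at graded concentrations and incubated 3 days at 37° C. Viability measured colorimetrically by XTT tetrazolium dye reduction.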

[2] = tested on: MT-2 cells; assay: Cytotoxicity in MT-2 cells (XTT); type: cell-based
Outline: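 XTT viability read-out: MT-2 cells (10^5 cells/ml) incubated with graded compound concentrations four days at 37° C; PBMC at 5×10^5 cells/ml, measured after seven days. CC50 derived from percentage cytotoxicity.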

[3] = tested on: pNL4-3 gp41 (36G) V38E, N42S (fusion resistant isolate); type: cell-based, HIV-1; conditions: subtype B, MT-2, X4, fusion resistant isolate, read-out: IC50 (μM) ± S.D., inhibitory activity on infection
[4] = tested on: Panel C env Du422, clone 1 (SVPC5); type: cell-based; conditions: TZM-bl, read-out: IC50 (μM) ± S.D., antiviral activity against HIV-1 envelope pseudoviruses
[5] = tested on: Panel C env ZM-197M.PB7, SVPC6; type: cell-based; conditions: TZM-bl, read-out: IC50 (μM) ± S.D., antiviral activity against HIV-1 envelope pseudoviruses
[6] = tested on: Panel C env ZM-214M.PL15, SVPC7; type: cell-based; conditions: TZM-bl, read-out: IC50 (μM) ± S.D., antiviral activity against HIV-1 envelope pseudoviruses
[7] = tested on: Panel C env ZM-249M.PL1, SVPC10; type: cell-based; conditions: TZM-bl, read-out: IC50 (μM) ± S.D., antiviral activity against HIV-1 envelope pseudoviruses
[8] = tested on: Panel C env ZM-53M.PB12, SVPC11; type: cell-based; conditions: TZM-bl, read-out: IC50 (μM) ± S.D., antiviral activity against HIV-1 envelope pseudoviruses
[9] = tested on: Panel C env ZM-109F.PB4, SVPC13; type: cell-based; conditions: TZM-bl, read-out: IC50 (μM) ± S.D., antiviral activity against HIV-1 envelope pseudoviruses
[10] = tested on: Panel C env ZM-135M.PL10a, SVPC15; type: cell-based; conditions: TZM-bl, read-out: IC50 (μM) ± S.D., antiviral activity against HIV-1 envelope pseudoviruses
[11] = tested on: Panel C env CAP-45.2.00.G3, SVPC16; type: cell-based; conditions: TZM-bl, read-out: IC50 (μM) ± S.D., antiviral activity against HIV-1 envelope pseudoviruses
[12] = tested on: Panel B env SC422661, clone B (SVPB8); type: cell-based; conditions: TZM-bl, read-out: IC50 (μM) ± S.D., antiviral activity against HIV-1 envelope pseudoviruses
[13] = tested on: laboratory-adapted HIV-1 IIIB strain
Description: In brief, 1×10^4 MT-2 cells were infected with HIV-1 at 100 TCID50 (50% tissue culture infective dose) (0.01MOI) in 200 μl medium in the presence or absence of small molecules at graded concentrations and incubated overnight. The culture supernatants were then removed and replaced with fresh media. On the fourth day post-infection, 100 μl of culture supernatants were collected from each well, mixed with equal volume of 5% Triton X-100 and tested for p24 antigen by sandwich-ELISA. The percent inhibition of p24 production and IC50 values were calculated by the GraphPad Prism software (GraphPad Software Inc.).

[14] = tested on: HIV-1 SF162; assay: Neutralization assay in PBMC (p24 ELISA); conditions: read-out: IC50 (μM) ± S.D., inhibitory activity on infection; SF162, subtype B, PBMC, R5, laboratory strain
Description: (§1) PBMCs were isolated from the blood of healthy donors at the New York Blood Center by standard density-gradient centrifugation using Histopaque-1077 (Sigma-Aldrich). The cells were cultured at 37° C. for 2 h. Non-adherent cells were collected and resuspended at 5×10^6 cells/ml in RPMI-1640 medium containing 10% (v/v) fetal bovine serum, 5 μg/ml of phytohemagglutinin, and 100 U/ml of IL-2 (Sigma-Aldrich), followed by incubation at 37° C. for three days.

[15] = tested on: primary HIV-1 isolate RU570 (clade G, R5); assay: Neutralization assay in PBMC (p24 ELISA); conditions: read-out: IC50 (μM) ± S.D., inhibitory activity on infection; RU570, subtype G, PBMC, R5, primary isolate
Description: as §1

[16] = tested on: primary HIV-1 isolate 92UG031 (subtype A, R5); assay: Neutralization assay in PBMC (p24 ELISA); conditions: read-out: IC50 (μM) ± S.D., inhibitory activity on infection; 92UG031, subtype A, PBMC, R5, primary isolate
Description: (§2) The inhibitory activity of small molecules on infection by primary HIV-1 isolates was determined. PBMCs were isolated from the blood of healthy donors at the New York Blood Center by standard density-gradient centrifugation using Histopaque-1077 (Sigma-Aldrich). The cells were cultured at 37° C. for 2 h. Non-adherent cells were collected and resuspended at 5×10^6 cells/ml in RPMI-1640 medium containing 10% (v/v) fetal bovine serum, 5 μg/ml of phytohemagglutinin, and 100 U/ml of IL-2 (Sigma-Aldrich), followed by incubation at 37° C. for three days.

[17] = tested on: primary HIV-1 isolate 93IN101 (subtype C, R5); assay: Neutralization assay in PBMC (p24 ELISA); conditions: read-out: IC50 (μM) ± S.D., inhibitory activity on infection; 93IN101, subtype C, PBMC, R5, primary isolate
Description: as §2

[18] = tested on: primary HIV-1 isolate 93TH060 (subtype E, R5); assay: Neutralization assay in PBMC (p24 ELISA); conditions: read-out: IC50 (μM) ± S.D., inhibitory activity on infection; 93TH060, subtype E, PBMC, R5, primary isolate
Description: as §2

[19] = tested on: primary HIV-1 isolate BCF02 (Group 0, R5); assay: Neutralization assay in PBMC (p24 ELISA); conditions: read-out: IC50 (μM) ± S.D., inhibitory activity on infection; BCF02, Group 0, PBMC, R5, primary isolate
Description: as §2

[20] = tested on: AZT-resistant (AZT-R) HIV-1 strain; assay: Multi-cycle neutralization assay in MT-2 cells; conditions: read-out: IC50 (μM) ± S.D., inhibitory activity on infection; AZT-R, subtype B, MT-2, X4, RT-resistant isolate
[21] = tested on: HIV-1 RF; assay: Multi-cycle neutralization assay in MT-2 cells; conditions: read-out: IC50 (μM) ± S.D., inhibitory activity on infection; RF, subtype B, MT-2, R5X4, laboratory strain
[22] = tested on: HIV-1 RF/L-323-12-3 (protease resistant isolate); assay: Multi-cycle neutralization assay in MT-2 cells; conditions: read-out: IC50 (μM) ± S.D., inhibitory activity on infection; HIV-1 RF/L-323-12-3, subtype B, MT-2, X4, protease resistant isolate
[23] = tested on: HIV-1 89.6; assay: Neutralization assay in PBMC (p24 ELISA); conditions: read-out: IC50 (μM) ± S.D., inhibitory activity on infection; 89.6, subtype B, PBMC, R5X4, laboratory strain
Description: as §2

[24] = read-out: IC50 (μM) ± S.D., inhibitory activity on infection, IIIB, subtype B, MT-2, X4, laboratory strain
[25] = read-out: MT-2 Cells IC50 (μM ± SD), multi-cycle assay, MT-2 cells, HIV-1 IIIB
[26] = TZM-bl cells, XTT, 3 days, read-out: TZM-bl cells CC50 (μM ± SD)
[27] = at the dose given as CC50 bound
[28] = MT-2 cells, XTT, four days, read-out: MT-2 Cells CC50

SMILES	IC50 [3]	IC50 [4]	IC50 [5]	IC50 [6]	IC50 [7]	IC50 [8]	IC50 [9]	IC50 [10]	IC50 [11]	IC50 [12]	IC50 [13, 24]	IC50 [13, 25]	IC50 [14]	IC50 [15]	IC50 [16]	IC50 [17]	IC50 [18]	IC50 [20]	IC50 [21]	IC50 [22]	also measured
Cc1nc(C(NC(=O)C(=O)Nc2ccc(Cl)cc2)C2CCCCN2)sc1CO.Cl (stereo not shown) [Compound 6, N^1-(4-chlorophenyl)-N^2-((5-(hydroxymethyl)-4-methylthiazol-2-yl)(piperidin-2-yl)methyl)oxalamide.HCl]	5.8 ± 0.3 µM	15.9 ± 0.4 µM	> 21 µM	> 21 µM	1.5 ± 0.6 µM	2.4 ± 0.2 µM	1.2 ± 0.2 µM	0.73 ± 0.13 µM	4.7 ± 0.95 µM	2.3 ± 0.2 µM	4.7 ± 0.6 µM	4.7 ± 0.6 µM	12.7 ± 0.7 µM	8.5 ± 0.8 µM	9.3 ± 0.7 µM	> 87 µM	7.2 ± 0.6 µM	4.4 ± 1.1 µM	9.6 ± 0.8 µM	14.7 ± 2.3 µM	% toxicity at that dose (number in parenthesis), TZM-bl cells [1]: 10%; CC50 [1]: > 22 µM; % toxicity at that dose (number in parenthesis), MT-2 cells [2]: 40%; CC50 [2]: > 108 µM; IC50 [19]: ~87 µM
Cc1ccc(NC(=O)C(=O)NC(c2nc(C)c(CO)s2)C2CCCCN2)cc1F.Cl (stereo not shown) [Compound 28, N^1-(3-fluoro-4-methylphenyl)-N^2-((5-(hydroxymethyl)-4-methylthiazol-2-yl)(piperidin-2-yl)methyl)oxalamide.HCl]	4.6 ± 0.4 µM	> 42 µM	> 42 µM	> 42 µM	> 42 µM	> 42 µM	> 42 µM			2.5 ± 0.3 µM	3.7 ± 0.7 µM	5.3 ± 0.5 µM	8.1 ± 1.2 µM	15.7 ± 0.2 µM	13.4 ± 1.2 µM	> 85 µM	9.9 ± 1.8 µM	5.5 ± 0.7 µM	11 ± 0.6 µM	4.8 ± 0.9 µM	CC50 [1, 26]: > 88 µM; % toxicity at that dose (number in parenthesis), TZM-bl cells [1, 27]: 0%; CC50 ([2]; MT-2 cells, XTT, four days, listed as NBD-11008, read-out: MT-2 Cells CC50): ~85 µM; CC50 [2, 28]: > 88 µM; % toxicity at that dose (number in parenthesis), MT-2 cells [2, 27]: 30%; IC50 [23]: 3.9 ± 0.5 µM; IC50 [19]: > 85 µM
Cc1nc(C(NC(=O)C(=O)Nc2ccc(Cl)c(F)c2)C2CCCCN2)sc1CCO.Cl (stereo not shown) [Compound 39, N^1-(4-chloro-3-fluorophenyl)-N^2-((5-(2-hydroxyethyl)-4-methylthiazol-2-yl)(piperidin-2-yl)methyl)oxalamide.HCl]	3.9 ± 0.3 µM	2.5 ± 0.1 µM	2.3 ± 0.2 µM	2.9 ± 0.4 µM	2.5 ± 0.2 µM		3 ± 0.1 µM	0.61 ± 0.1 µM	3.4 ± 0.4 µM	1.3 ± 0.1 µM	3.5 ± 0.9 µM	3.5 ± 0.9 µM	11.9 ± 1 µM	10.7 ± 0.5 µM	12.9 ± 1.5 µM	~81.5 µM	13.7 ± 0.9 µM	6.8 ± 0.6 µM	11.8 ± 1.2 µM	6.9 ± 1 µM	CC50 [1]: ~61 µM; IC50 [23]: 6.2 ± 0.3 µM; IC50 [19]: 65.1 ± 3.5 µM
CC1(C)CC(NC(=O)C(=O)Nc2ccc(Cl)cc2)CC(C)(C)N1 [NBD-556, reference compound]	11 ± 0.9 µM	11.8 ± 2.9 µM	7.9 ± 0.9 µM	6.5 ± 1.3 µM	6.1 ± 1.7 µM	13.4 ± 0.06 µM	10.4 ± 3.5 µM	1.5 ± 0.01 µM	7.9 ± 0.87 µM		6.5 ± 0.1 µM	8 ± 0.2 µM	48.9 ± 7.3 µM	19.5 ± 2.3 µM			> 45 µM	58 ± 14.3 µM	18.7 ± 1.3 µM	> 59 µM	CC50 [1, 26]: > 60 µM; % toxicity at that dose (number in parenthesis), TZM-bl cells [1, 27]: 10%; CC50 ([2]; MT-2 cells, XTT, four days, listed as 1, read-out: MT-2 Cells CC50): ~150 µM; CC50 [2, 28]: 280 µM; IC50 [23]: 4.8 ± 1 µM
